The numbers were not newly measured in patent publication US9301906B2, “Dentrifice composition” (Kao Corporation, priority 2011, dated 2016), which cites them from elsewhere.

Molecules are shown by their SMILES.

Turning to `OC[C@@H](O)[C@@H](O)CO` [erythritol], the “solubility in 100 g of an aqueous solution at 20° C.” value (“solubility in 100 g” for short) is recorded as 36 g in 100 g of an aqueous solution.

For `OC[C@@H](O)[C@@H](O[C@H]1O[C@H](CO)[C@@H](O)[C@H](O)[C@H]1O)[C@H](O)[C@@H](O)CO` [maltitol], the “solubility in 100 g” value is on record as 60 g in 100 g of an aqueous solution. As for `OC[C@@H](O)[C@@H](O)[C@H](O)[C@H](O)CO` [mannitol], the “solubility in 100 g” value is 18 g in 100 g of an aqueous solution. For `OC[C@@H](O)[C@@H](O)[C@H](O)[C@@H](O)CO` [sorbitol], the “solubility in 100 g” value was 72 g in 100 g of an aqueous solution.

Consider `OC[C@@H](O)[C@H](O)[C@@H](O)CO` [xylitol], for which the “solubility in 100 g” value was 66 g in 100 g of an aqueous solution.
